Drawing on patent US11065253B2, “Arylquinazolines” (Merck Patent GmbH, priority 2013, dated 2021), this text covers IC50 for 32 compounds.

The first experiment concerns phospho-serine 2056 DNA-PK in HCT116 cells. The experiment is described as follows: DNA-PK phosphorylation at serine 2056 (cellular), ELISA in bleomycin-treated HCT116 cells. Format: cell-based. To be noted: Homo sapiens, HCT-116, 6 h, cellular; HCT116 cells, 10 μM bleomycin, six hours; read-out: IC50 pDNA-PK. A digest of the protocol:
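HCT116 cells grown overnight were co-treated with 10 μM bleomycin and test compound for 6 h at 37 °C. Phospho-DNA-PK was quantified by chemiluminescent ELISA and normalised to total DNA-PKcs signal, with DMSO control as blank.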
On the technique in general: In an ELISA, binding on a coated surface is turned into a signal by an enzyme label.
In the case of `O=c1ccc(C(O)c2ccc(F)c(-c3ncnc4cc(N5CCOCC5)ccc34)c2)n[nH]1` (centres unmarked) [Example 76, 6-{[4-Fluoro-3-(7-morpholin-4-yl-quinazolin-4-yl)phenyl]-hydroxymethyl}-2H-pyridazin-3-one], the half-maximal inhibitory concentration (IC50) was in the range of 0.5 to 5 µM.

In the case of `CN(C)c1ccc(C(O)c2ccc(F)c(-c3ncnc4cc(N5CCOCC5)ccc34)c2)nn1` (centres unmarked) [Example 68, (6-Dimethylamino-pyridazin-3-yl)-[4-fluoro-3-(7-morpholin-4-yl-quinazolin-4-yl)phenyl]-methanol], the IC50 lay in the range of 5 to 10 µM. Turning to `CN(C)C(=O)c1ccc(C(O)c2cc(-c3ncnc4cc(N5CCOCC5)ccc34)c(F)cc2Cl)nn1` (centres unmarked) [Example 50, 6-{[2-Chloro-4-fluoro-5-(7-morpholin-4-yl-quinazolin-4-yl)phenyl]-hydroxymethyl}-pyridazine-3-carboxylic acid dimethylamide], the IC50 was 10 to 30 µM. For `OC(c1ccc(F)c(-c2ncnc3cc(N4CCOCC4)ccc23)c1)c1c(Cl)cncc1Cl` (centres unmarked) [Example 17, (3,5-Dichloro-pyridin-4-yl)-[4-Fluoro-3-(7-morpholin-4-yl-quinazolin-4-yl)phenyl]-methanol], the concentration for half-maximal inhibition (IC50) is 0.5 to 5 µM. The same measure, in the same setting: in the case of `OC(c1ccc(F)c(-c2ncnc3cc(N4CCOCC4)ccc23)c1)c1ncccc1OC(F)F` (centres unmarked) [Example 81, (3-Difluoromethoxy-pyridin-2-yl)-[4-fluoro-3-(7-morpholin-4-yl-quinazolin-4-yl)-phenyl]methanol] it was below 0.5 µM. Take `CCOc1cnnc(C(O)c2ccc(F)c(-c3ncnc4cc(N5CCOCC5)ccc34)c2)c1` (centres unmarked) [Example 79, (5-Ethoxypyridazin-3-yl)-[4-fluoro-3-(7-morpholin-4-yl-quinazolin-4-yl)phenyl]-methanol]: the IC50 lay within 5 to 10 µM. On the same count and under the same terms, in the case of `COc1cnc(Cl)c(C(O)c2ccc(F)c(-c3ncnc4cc(N5CCOCC5)ccc34)c2)n1` (centres unmarked) [Example 26, (3-Chloro-6-methoxy-pyrazin-2-yl)-[4-fluoro-3-(7-morpholin-4-yl-quinazolin-4-yl)phenyl]-methanol] it was below 0.5 µM; in that of `OC(c1ccc(F)c(-c2ncnc3cc(N4CCOCC4)ccc23)c1)c1cnccn1` (centres unmarked) [Example 33, [4-Fluoro-3-(7-morpholin-4-yl-quinazolin-4-yl)phenyl]-pyrazin-2-ylmethanol], 10 to 30 µM.

Staying with this experiment, now noted: Homo sapiens, HCT-116, cellular DNA-PK phosphorylation at serine 2056, HCT116 cells; read-out: IC50 pDNA-PK.
Turning to `OC(c1ccc(F)c(-c2ncnc3cc(N4CCOCC4)ccc23)c1)c1ncnc2sccc12` (centres unmarked) [Example 437, [4-Fluoro-3-(7-morpholin-4-yl-quinazolin-4-yl)-phenyl]thieno[2,3-d}-pyrimidin-4-yl-methanol], the IC50 was below 0.5 µM. Same read-out and setting: then `Cn1cnc2ncnc(C(O)c3ccc(F)c(-c4ncnc5cc(N6CCOCC6)ccc45)c3)c21` (centres unmarked) [Example 433, [4-Fluoro-3-(7-morpholin-4-yl-quinazolin-4-yl)-phenyl]-(7-methyl-7H-purin-6-yl)-methanol], with 0.5 to 5 µM. Consider `OC(c1ccc(F)c(-c2ncnc3cc(N4CCOCC4)ccc23)c1)c1nccnc1C(F)(F)F` (centres unmarked) [Example 476, [4-Fluoro-3-(7-morpholin-4-yl-quinazolin-4-yl)-phenyl]-(3-trifluoro-methylpyrazin-2-yl)-methanol], for which the IC50 is below 0.5 µM.

Still in this experiment, the particulars now being: Homo sapiens, HCT-116, phospho-serine 2056 DNA-PK, bleomycin-treated HCT116 cells; class symbols A-D; read-out: IC50 pDNA-PK.
In the case of `OC(c1ccc(F)c(-c2ncnc3cc(N4CCOCC4)sc23)c1)c1nccs1` (racemic) [Example 144, [4-Fluoro-3-(6-morpholin-4-yl-thieno[3,2-d}-pyrimidin-4-yl)-phenyl]thiazol-2-yl-methanol], the IC50 was in the range of 0.5 to 5 µM. The same measure, in the same setting: then `Cc1nc(C(O)c2ccc(F)c(-c3ncnc4cc(N5CCOCC5)ccc34)c2)sc1CO` (centres unmarked) [Example 200, [4-Fluoro-3-(7-morpholin-4-yl-quinazolin-4-yl)-phenyl]-(5-hydroxy-methyl-4-methyl-thiazol-2-yl)-methanol], with 5 to 10 µM; and `OC(c1ccc(F)c(-c2ncnc3cc(N4CCOCC4)ncc23)c1)c1nccs1` (centres unmarked) [Example 140, [4-Fluoro-3-(7-morpholin-4-yl-pyrido[4,3-d}-pyrimidin-4-yl)-phenyl]thiazol-2-yl-methanol], with 10 to 30 µM; and `OC(c1ccc(F)c(-c2ncnc3cc(N4CCOCC4)sc23)c1)c1nccs1` (centres unmarked) [Example 145, [4-Fluoro-3-(6-morpholin-4-yl-thieno[3,2-d}-pyrimidin-4-yl)-phenyl]thiazol-2-yl-methanol], with 0.5 to 5 µM.

For `CCn1cc(C(O)c2cc(-c3ncnc4cc(N5CCOCC5)ccc34)c(F)cc2Cl)cn1` (centres unmarked) [Example 202, [2-Chloro-4-fluoro-5-(7-morpholin-4-ylquinazolin-4-yl)-phenyl]-(1-ethyl-1H-pyrazol-4-yl)-methanol], the half-inhibitory concentration (IC50) was 0.5 to 5 µM.

The same experiment, now with this note: Homo sapiens, HCT-116, phospho-serine 2056 DNA-PK, bleomycin-treated HCT116 cells; read-out: IC50 pDNA-PK.
As to `Cc1cc(C(O)c2cc(-c3ncnc4cc(N5CCOCC5)ccc34)c(F)cc2Cl)n(C)c(=O)c1` (centres unmarked) [Example 339, 6-{[2-Chloro-4-fluoro-5-(7-morpholin-4-yl-quinazolin-4-yl)-phenyl]hydroxy-methyl}-1,4-dimethyl-1H-pyridin-2-one], the 50% inhibitory concentration (IC50) fell in the range of 0.5 to 5 µM. Still for that read-out and setting: then `[2H]c1c(N2CCOCC2)cc2ncnc(-c3cc(C(O)c4nccnc4C)ccc3F)c2c1[2H]` (centres unmarked) [Example 226, [3-(5,6-Dideuterio-7-morpholino-quinazolin-4-yl)-4-fluorophenyl]-(3-methylpyrazin-2-yl)-methanol], with below 0.5 µM; and `Cc1nccnc1C(O)c1ccc(F)c(-c2ncnc3cc(N4CCOCC4)c(F)cc23)c1` (centres unmarked) [Example 283, [4-Fluoro-3-(6-fluoro-7-morpholin-4-yl-quinazolin-4-yl)-phenyl]-(3-methyl-pyrazin-2-yl)-methanol], with 10 to 30 µM. Same read-out and setting: in the case of `COc1ccc(C(C(N)=O)c2ccc(F)c(-c3ncnc4cc(N5CCOCC5)ccc34)c2)nn1` (centres unmarked) [Example 308, 2-[4-Fluoro-3-(7-morpholin-4-yl-quinazolin-4-yl)-phenyl]-2-(6-methoxypyridazin-3-yl)acetamide] it was 10 to 30 µM; in that of `[2H]C1([2H])OC([2H])([2H])C([2H])([2H])N(c2ccc3c(-c4cc(C(O)c5nccnc5OC)c(Cl)cc4F)ncnc3c2)C1([2H])[2H]` (centres unmarked) [Example 241, [2-Chloro-4-fluoro-5-[7-(2,2,3,3,5,5,6,6-octadeuterio-morpholin-4-yl)quinazolin-4-yl]phenyl]-(3-methoxypyrazin-2-yl)methanol], below 0.5 µM; in that of `Cc1nccnc1C(C(N)=O)c1ccc(F)c(-c2ncnc3cc(N4CCOCC4)ccc23)c1` (centres unmarked) [Example 327, 2-[4-Fluoro-3-(7-morpholin-4-yl-quinazolin-4-yl)-phenyl]-2-(3-methyl-pyrazin-2-yl)-acetamide], 10 to 30 µM. The same measure, in the same setting: then `OC(c1cc(-c2ncnc3cc(N4CCOCC4)ccc23)c(F)cc1F)c1nncc2ccoc12` (centres unmarked) [Example 336, [2,4-Difluoro-5-(7-morpholin-4-yl-quinazolin-4-yl)-phenyl]furo[2,3-d}-pyridazin-7-yl-methanol], with below 0.5 µM. As to `OC(c1cc(-c2ncnc3cc(N4CCOCC4)ccc23)c(F)cc1Cl)c1nccn2cccc12` (centres unmarked) [Example 359, [2-Chloro-4-fluoro-5-(7-morpholin-4-yl-quinazolin-4-yl)-phenyl]pyrrolo[1,2-a]-pyrazin-1-ylmethanol], the IC50 was below 0.5 µM. Same read-out and setting: in the case of `NC(=O)c1cncc(C(C(N)=O)c2ccc(F)c(-c3ncnc4cc(N5CCOCC5)ccc34)c2)n1` (centres unmarked) [Example 292, 6-{Carbamoyl-[4-fluoro-3-(7-morpholin-4-yl-quinazolin-4-yl)-phenyl]methyl}-pyrazine-2-carboxylic acid amide] it was 10 to 30 µM; in that of `NC(=O)C(c1ccc(F)c(-c2ncnc3cc(N4CCOCC4)ccc23)c1)c1c(F)cncc1F` (centres unmarked) [Example 321, 2-(3,5-Difluoro-pyridin-4-yl)-2-[4-fluoro-3-(7-morpholin-4-yl-quinazolin-4-yl)-phenyl]acetamide], 0.5 to 5 µM.

Staying with this experiment, now noted: cellular DNA-PK phosphorylation at serine 2056, HCT116 cells; read-out: IC50 pDNA-PK.
For `OC(c1cc(-c2ncnc3cc(N4CCOCC4)ccc23)c(F)cc1F)c1nccnc1OC(F)F` (centres unmarked) [Example 451, (3-Difluoromethoxy-pyrazin-2-yl)-[2,4-difluoro-5-(7-morpholin-4-yl-quinazolin-4-yl)-phenyl]methanol], the IC50 was in the range of 0.5 to 5 µM. The same measure, in the same setting: then `OC(c1cc(-c2ncnc3cc(N4CCOCC4)ccc23)c(F)cc1F)c1ncnc2ccoc12` (centres unmarked) [Example 445, [2,4-Difluoro-5-(7-morpholin-4-yl-quinazolin-4-yl)-phenyl]furo[3,2-d}-pyrimidin-4-yl-methanol], with below 0.5 µM.

The same experiment, now with this note: cellular; HCT116 cells, 10 μM bleomycin, six hours; read-out: IC50 pDNA-PK.
For `OC(c1cccnn1)c1cc(-c2ncnc3cc(N4CCOCC4)ccc23)c(F)cc1Cl` (centres unmarked) [Example 47, [2-Chloro-4-fluoro-5-(7-morpholin-4-yl-quinazolin-4-yl)phenyl]-pyridazin-3-ylmethanol], the IC50 was below 0.5 µM. Same read-out and setting: then `OC(c1ccc2nccn2n1)c1cc(-c2ncnc3cc(N4CCOCC4)ccc23)c(F)cc1Cl` (centres unmarked) [Example 63, [2-Chloro-4-fluoro-5-(7-morpholin-4-yl-quinazolin-4-yl)phenyl]-imidazo[1,2-b]pyridazin-6-ylmethanol], with 0.5 to 5 µM; and `OC(c1ccc2nccn2n1)c1cc(-c2ncnc3cc(N4CCOCC4)ccc23)c(F)cc1F` (centres unmarked) [Example 21, [2,4-Difluoro-5-(7-morpholin-4-yl-quinazolin-4-yl)phenyl]-imidazo[1,2-b]pyridazin-6-ylmethanol], with below 0.5 µM.

The same experiment, now with this note: phospho-serine 2056 DNA-PK, bleomycin-treated HCT116 cells; class symbols A-D; read-out: IC50 pDNA-PK.
As for `Cc1nc(C(O)c2cnc(F)c(-c3ncnc4cc(N5CCOCC5)ncc34)c2)sc1C` (centres unmarked) [Example 203, (4,5-Dimethyl-thiazol-2-yl)-[6-fluoro-5-(7-morpholin-4-yl-pyrido[4,3-d}-pyrimidin-4-yl)-pyridin-3-yl]-methanol], the IC50 was 10 to 30 µM.

A word on the IC50: it is the concentration that inhibits the measured activity by half.
